Experimental data published in patent US8426437B2, “Pyrroloquinoline derivatives and their use as protein kinases inhibitors” (Pierre Fabre Medicament, priority 2005, dated 2013).
Structures can show the parent of a compound that is named as a salt.

Tests used:
Format in all cases: biochemical
RET = molecular target: T1, RET (Homo sapiens, UniProt P07949); experiment: Inhibition of RET kinase activity, recombinant RET method (Kinase-Glo); details: RET 2 μg/ml, poly-EY4 substrate, 20 μM ATP, two hours at 30° C.
T1 construct: purchased Upstate 14-570MG
T1 sequence (P07949 29-1114): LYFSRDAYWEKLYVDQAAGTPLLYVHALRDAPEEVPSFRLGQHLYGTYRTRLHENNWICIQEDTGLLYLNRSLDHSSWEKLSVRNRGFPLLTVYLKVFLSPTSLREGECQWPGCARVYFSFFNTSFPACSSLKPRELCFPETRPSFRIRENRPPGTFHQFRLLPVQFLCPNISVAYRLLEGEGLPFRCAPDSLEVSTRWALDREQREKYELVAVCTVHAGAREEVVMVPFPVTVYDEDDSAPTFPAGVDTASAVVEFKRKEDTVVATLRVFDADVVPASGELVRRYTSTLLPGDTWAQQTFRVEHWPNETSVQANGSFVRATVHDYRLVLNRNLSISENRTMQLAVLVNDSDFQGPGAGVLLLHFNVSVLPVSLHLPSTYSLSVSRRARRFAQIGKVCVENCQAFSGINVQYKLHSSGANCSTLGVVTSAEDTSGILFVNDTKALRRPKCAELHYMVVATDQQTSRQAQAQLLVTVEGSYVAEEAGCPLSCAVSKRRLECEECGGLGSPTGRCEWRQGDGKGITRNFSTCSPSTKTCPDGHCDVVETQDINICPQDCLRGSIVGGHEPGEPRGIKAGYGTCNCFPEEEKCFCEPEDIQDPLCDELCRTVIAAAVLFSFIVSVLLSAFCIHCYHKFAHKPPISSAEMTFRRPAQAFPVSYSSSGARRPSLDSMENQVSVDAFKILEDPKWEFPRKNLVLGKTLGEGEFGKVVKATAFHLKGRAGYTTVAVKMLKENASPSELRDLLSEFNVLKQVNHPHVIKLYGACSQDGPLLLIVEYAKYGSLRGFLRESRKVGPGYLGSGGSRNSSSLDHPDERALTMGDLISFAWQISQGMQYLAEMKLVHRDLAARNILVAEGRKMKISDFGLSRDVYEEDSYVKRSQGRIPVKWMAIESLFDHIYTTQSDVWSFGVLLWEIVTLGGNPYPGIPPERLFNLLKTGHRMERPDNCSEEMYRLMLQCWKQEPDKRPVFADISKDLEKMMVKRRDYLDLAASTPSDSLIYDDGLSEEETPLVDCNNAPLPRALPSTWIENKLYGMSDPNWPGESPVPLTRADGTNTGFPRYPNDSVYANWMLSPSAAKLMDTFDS
Procedure, shortened: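 Recombinant RET at 2 μg/ml in 20 mM MOPS/NaOH pH 7.0, 1 mM EDTA, 5% glycerol, 0.01% Brij35, 0.1% 2-mercaptoethanol, 1 mg/ml BSA; compounds 10 nM–30 μM final.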

TrkB = molecular target: T2, TrkB (Homo sapiens, UniProt Q16620); experiment: Inhibition of kinase TrkB (Kinase-Glo); details: TrkB 4 μg/ml, 40 μM ATP, two hours at 30° C.
T2 construct: purchased Upstate 14-507
T2 sequence (Q16620 32-822): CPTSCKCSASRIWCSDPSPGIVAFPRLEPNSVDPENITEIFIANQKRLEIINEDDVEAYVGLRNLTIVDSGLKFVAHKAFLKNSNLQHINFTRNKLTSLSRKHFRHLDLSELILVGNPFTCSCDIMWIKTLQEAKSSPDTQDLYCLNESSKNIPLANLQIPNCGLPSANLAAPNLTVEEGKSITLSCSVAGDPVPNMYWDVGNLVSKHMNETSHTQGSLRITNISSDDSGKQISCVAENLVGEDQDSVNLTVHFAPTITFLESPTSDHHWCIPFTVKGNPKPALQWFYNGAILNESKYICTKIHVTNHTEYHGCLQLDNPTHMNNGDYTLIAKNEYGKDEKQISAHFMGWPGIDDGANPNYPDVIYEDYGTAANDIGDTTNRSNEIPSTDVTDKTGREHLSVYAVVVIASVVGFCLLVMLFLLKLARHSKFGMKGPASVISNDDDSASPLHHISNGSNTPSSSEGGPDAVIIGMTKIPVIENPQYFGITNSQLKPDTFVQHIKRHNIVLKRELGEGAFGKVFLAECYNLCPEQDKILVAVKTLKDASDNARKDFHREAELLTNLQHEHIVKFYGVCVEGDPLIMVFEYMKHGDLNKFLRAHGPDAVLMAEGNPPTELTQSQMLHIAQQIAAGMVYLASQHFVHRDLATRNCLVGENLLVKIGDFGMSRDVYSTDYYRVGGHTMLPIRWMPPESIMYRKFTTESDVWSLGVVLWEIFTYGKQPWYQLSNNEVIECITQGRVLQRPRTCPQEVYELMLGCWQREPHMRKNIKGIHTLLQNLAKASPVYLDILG
Protocol: Protein TrkB (Upstate 14-507; batch #25578U) is incubated at a concentration of 4 μg/ml in a buffer containing 8 mM of MOPS/NaOH pH7, 0.2 mM EDTA, 40 mM MgAc (Sigma #229768), 1 mM DTT (Fluka #43816), NaOV 1 mM, 25 mM 2-glycerolphosphate (Sigma #G9891), in the presence of 2.5 mg/ml of peptide substrate poly-EY (Upstate #P0275), and 40 μM of ATP.
The dilution buffer for TrkB is as follows: 20 mM MOPS/NaOH pH7, 1 mM EDTA, 5% glycerol, 0.01% Brij35, 0.1% 2-mercapto, 1 mg/ml BSA.
(§1) The compound to be tested is first added to the enzyme to give a reaction volume of 50 μl. The dilution of the compounds of the invention is distributed so as to obtain a scale of final concentrations between 10 nM and 30 μM.
(§2) After incubation of the reaction mixture for two hours at 30° C., the level of ATP that remains is assayed using the Kinase-Glo Luminescent Kinase Assay (Promega #V6712) according to the conditions recommended by the supplier. The luminescence induced is read in a plate reader (Envision-Perkin Elmer).

TrkA = molecular target: T3, TrkA (Homo sapiens, UniProt P04629); experiment: Inhibition of kinase TrkA (Kinase-Glo); details: TrkA 4 μg/ml, 30 μM ATP, two hours at 30° C.
T3 construct: purchased Upstate 14-571
T3 sequence (P04629 33-796): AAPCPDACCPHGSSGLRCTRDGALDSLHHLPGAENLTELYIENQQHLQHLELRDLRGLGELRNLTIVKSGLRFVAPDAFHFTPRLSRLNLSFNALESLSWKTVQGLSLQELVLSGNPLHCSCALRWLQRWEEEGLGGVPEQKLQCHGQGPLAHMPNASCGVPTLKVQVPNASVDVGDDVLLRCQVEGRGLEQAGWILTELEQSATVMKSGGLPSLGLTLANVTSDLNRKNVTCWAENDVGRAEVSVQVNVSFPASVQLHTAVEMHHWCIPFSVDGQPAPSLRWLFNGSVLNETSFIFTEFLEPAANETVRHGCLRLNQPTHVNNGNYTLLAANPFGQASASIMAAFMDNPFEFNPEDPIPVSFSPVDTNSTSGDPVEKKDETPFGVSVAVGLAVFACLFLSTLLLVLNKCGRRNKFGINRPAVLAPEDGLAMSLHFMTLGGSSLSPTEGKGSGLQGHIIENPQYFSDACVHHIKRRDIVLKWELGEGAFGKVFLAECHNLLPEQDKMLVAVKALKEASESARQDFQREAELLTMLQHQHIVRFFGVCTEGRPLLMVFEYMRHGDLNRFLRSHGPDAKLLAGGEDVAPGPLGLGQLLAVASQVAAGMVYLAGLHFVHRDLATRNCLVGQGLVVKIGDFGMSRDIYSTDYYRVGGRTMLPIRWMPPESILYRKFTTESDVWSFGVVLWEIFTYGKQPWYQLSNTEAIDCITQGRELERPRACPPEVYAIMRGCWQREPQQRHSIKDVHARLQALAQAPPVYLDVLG
Protocol: Protein TrkA (Upstate 14-571; batch #25634U) is incubated at a concentration of 4 μg/ml in a buffer containing 8 mM of MOPS/NaOH pH7, 0.2 mM EDTA, 40 mM MgAc (Sigma #229768), 1 mM DTT (Fluka #43816), NaOV 1 mM, 0.01% Triton Tx100, in the presence of 1 mg/ml of peptide substrate poly-EY (Upstate #P0275), and 30 μM of ATP.
The dilution buffer for TrkA is as follows: 20 mM MOPS/NaOH pH7, 1 mM EDTA, 5% glycerol, 0.01% Brij35, 0.1% 2-mercapto, 1 mg/ml BSA.
as §1, §2

PIM-1 = molecular target: T4, PIM-1 (Homo sapiens, UniProt P11309); experiment: Inhibition of kinase PIM-1 (Kinase-Glo); details: PIM-1 0.625 μg/ml, 10 μM ATP, forty minutes at 30° C.
T4 construct: purchased Upstate 14-573
T4 sequence (P11309 whole entry): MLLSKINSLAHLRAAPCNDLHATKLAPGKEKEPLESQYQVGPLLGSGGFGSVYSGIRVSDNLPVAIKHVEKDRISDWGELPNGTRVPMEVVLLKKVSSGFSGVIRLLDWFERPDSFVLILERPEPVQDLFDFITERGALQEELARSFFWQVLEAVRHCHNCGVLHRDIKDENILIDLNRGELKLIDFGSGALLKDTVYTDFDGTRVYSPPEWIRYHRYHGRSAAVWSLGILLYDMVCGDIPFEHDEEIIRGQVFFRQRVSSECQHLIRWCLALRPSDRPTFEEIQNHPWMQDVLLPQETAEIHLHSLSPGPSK
Protocol: Protein PIM-1 (Upstate #14-573 batch 25864U) is incubated at a concentration of 0.625 μg/ml in a buffer containing 8 mM of MOPS/NaOH pH7, 0.2 mM EDTA, 5 mM MgAc (Sigma #229768), 0.01% Triton Tx100, in the presence of 70 μM of peptide substrate S6 Kinase/Rsk2 (Upstate #12-243), and 10 μM of ATP.
The dilution buffer for PIM-1 is as follows: 20 mM MOPS/NaOH pH7, 1 mM EDTA, 5% glycerol, 0.01% Brij35, 0.1% 2-mercapto, 1 mg/ml BSA
as §1
as §2, with “forty minutes” for “two hours”

| SMILES | IC50 (RET) | IC50 (TrkB) | IC50 (TrkA) | IC50 (PIM-1) |
| --- | --- | --- | --- | --- |
| CCOC(=O)c1c[nH]c2c(=O)[nH]c3ccc(S(=O)(=O)Nc4ccccc4)cc3c12 [Compound 2, 4-Oxo-8-phenylsulfamoyl-4,5-dihydro-3H-pyrrolo[2,3-c]quinoline-1-ethyl carboxylate] | < 0.1 µM | 1 to 10 µM | 1 to 10 µM |  |
| CCOC(=O)c1c[nH]c2c(=O)[nH]c3ccc(S(=O)(=O)N(C)c4ccccc4)cc3c12 [Compound 3, 8-(Methyl-phenylsulfamoyl)-4-oxo-4,5-dihydro-3H-pyrrolo[2,3-c]quinoline-1-ethyl carboxylate] | < 0.1 µM | 10 to 100 µM | 1 to 10 µM | 10 to 100 µM |
| CCOC(=O)c1c[nH]c2c(=O)[nH]c3ccc(S(=O)(=O)Nc4ccc(C)cc4)cc3c12 [Compound 6, 4-Oxo-8-p-tolylsulfamoyl-4,5-dihydro-3H-pyrrolo[2,3-c]quinoline-1-ethyl carboxylate] | 0.1 to 1 µM | 10 to 100 µM | 10 to 100 µM |  |
| CCOC(=O)c1c[nH]c2c(=O)[nH]c3ccc(S(=O)(=O)Nc4cccc(OC)c4)cc3c12 [Compound 8, 8-(3-Methoxy-phenylsulfamoyl)-4-oxo-4,5-dihydro-3H-pyrrolo[2,3-c]quinoline-1-ethyl carboxylate] | 0.1 to 1 µM | 10 to 100 µM | 10 to 100 µM |  |
| CCOC(=O)c1c[nH]c2c(=O)[nH]c3ccc(NS(=O)(=O)c4ccccc4)cc3c12 [Compound 37, 8-Benzenesulfonylamino-4-oxo-4,5-dihydro-3H-pyrrolo[2,3-c]quinoline-1-ethyl carboxylate] | 0.1 to 1 µM | 1 to 10 µM | 1 to 10 µM | 10 to 100 µM |
| CCOC(=O)c1c[nH]c2c(=O)[nH]c3ccc(NS(=O)(=O)c4ccc(F)cc4)cc3c12 [Compound 43, 8-(4-Fluoro-benzenesulfonylamino)-4-oxo-4,5-dihydro-3H-pyrrolo[2,3-c]quinoline-1-ethyl carboxylate] | 0.1 to 1 µM | 1 to 10 µM | 1 to 10 µM |  |
| CCOC(=O)c1c[nH]c2c(=O)[nH]c3ccc(NS(=O)(=O)c4cccc(F)c4)cc3c12 [Compound 44, 8-(3-Fluoro-benzenesulfonylamino)-4-oxo-4,5-dihydro-3H-pyrrolo[2,3-c]quinoline-1-ethyl carboxylate] | 0.1 to 1 µM | 1 to 10 µM | 1 to 10 µM |  |
| CCOC(=O)c1c[nH]c2c(=O)[nH]c3ccc(NS(=O)(=O)c4ccccc4F)cc3c12 [Compound 45, 8-(2-Fluoro-benzenesulfonylamino)-4-oxo-4,5-dihydro-3H-pyrrolo[2,3-c]quinoline-1-ethyl carboxylate] | 1 to 10 µM | 1 to 10 µM | 1 to 10 µM |  |
| CCOC(=O)c1c[nH]c2c(=O)[nH]c3ccc(NS(=O)(=O)c4ccc(C(C)(C)C)cc4)cc3c12 [Compound 49, 8-(4-tert-Butyl-benzenesulfonylamino)-4-oxo-4,5-dihydro-3H-pyrrolo[2,3-c]quinoline-1-ethyl carboxylate] | 10 to 100 µM | 1 to 10 µM | 10 to 100 µM |  |

Second part, the molecule after the results:

| IC50 (RET) | IC50 (TrkB) | IC50 (TrkA) | IC50 (PIM-1) | SMILES |
| --- | --- | --- | --- | --- |
| 0.1 to 1 µM | 1 to 10 µM | 1 to 10 µM |  | CCOC(=O)c1c[nH]c2c(=O)[nH]c3ccc(NS(=O)(=O)c4cccs4)cc3c12 [Compound 56, 4-Oxo-8-(thiophene-2-sulfonylamino)-4,5-dihydro-3H-pyrrolo[2,3-c]quinoline-1-ethyl carboxylate] |
| 0.1 to 1 µM | 1 to 10 µM | 1 to 10 µM |  | CCOC(=O)c1c[nH]c2c(=O)[nH]c3ccc(N(C)S(=O)(=O)c4ccccc4)cc3c12 [Compound 58, 8-(Benzenesulfonyl-methyl-amino)-4-oxo-4,5-dihydro-3H-pyrrolo[2,3-c]quinoline-1-ethyl carboxylate] |
| 1 to 10 µM | 1 to 10 µM | 1 to 10 µM |  | COC(=O)c1c[nH]c2c(=O)[nH]c3ccc(S(=O)(=O)NC4CCCCC4)cc3c12 [Compound 111, 8-Cyclohexylsulfamoyl-4-oxo-4,5-dihydro-3H-pyrrolo[2,3-c]quinoline-1-methyl carboxylate] |
| < 0.1 µM | 10 to 100 µM | 10 to 100 µM | 1 to 10 µM | CCCOC(=O)c1c[nH]c2c(=O)[nH]c3ccc(S(=O)(=O)NC4CCNCC4)cc3c12 [Compound 114, 4-Oxo-8-(piperidin-4-ylsulfamoyl)-4,5-dihydro-3H-pyrrolo[2,3-c]quinoline-1-propyl carboxylate] |
| 0.1 to 1 µM | 1 to 10 µM | 1 to 10 µM |  | CCOC(=O)c1c[nH]c2c(=O)[nH]c3ccc(S(=O)(=O)N4CCCC4)cc3c12 [Compound 162, 4-Oxo-8-(pyrrolidine-1-sulfonyl)-4,5-dihydro-3H-pyrrolo[2,3-c]quinoline-1-ethyl carboxylate] |
| 0.1 to 1 µM | 1 to 10 µM | 1 to 10 µM |  | CCOC(=O)c1c[nH]c2c(=O)[nH]c3ccc(-c4cccc(N)c4)cc3c12 [Compound 234, Trifluoroacetate of 8-(3-aminophenyl)-4-oxo-4,5-dihydro-3H-pyrrolo[2,3-c]quinoline-1-ethyl carboxylate] |
| 0.1 to 1 µM |  |  | 1 to 10 µM | CCOC(=O)c1c[nH]c2c(=O)[nH]c3ccc(-c4ccnc(NC)n4)cc3c12 [Compound 263, 8-(2-Methylamino-pyrimidin-4-yl)-4-oxo-4,5-dihydro-3H-pyrrolo[2,3-c]quinoline-1-ethyl carboxylate formate] |
| 1 to 10 µM | 1 to 10 µM | 1 to 10 µM |  | CCOC(=O)c1c[nH]c2c(=O)[nH]c3ccc(-c4ccnc(Nc5ccccc5)n4)cc3c12 [Compound 266, 4-Oxo-8-(2-phenylamino-pyrimidin-4-yl)-4,5-dihydro-3H-pyrrolo[2,3-c]quinoline-1-ethyl carboxylate] |
| 1 to 10 µM | 10 to 100 µM | 10 to 100 µM |  | CCOC(=O)c1c[nH]c2c(=O)[nH]c3ccc(-c4ccnc(Nc5nc6ccccc6[nH]5)n4)cc3c12 [Compound 267, 8-[2-(1H-Benzoimidazol-2-ylamino)-pyrimidin-4-yl]-4-oxo-4,5-dihydro-3H-pyrrolo[2,3-c]quinoline-1-ethyl carboxylate] |
| 1 to 10 µM |  |  | 1 to 10 µM | CCOC(=O)c1c[nH]c2c(=O)[nH]c3ccc(-c4ccnc(N5CCN(C(C)=O)CC5)n4)cc3c12 [Compound 268, 8-[2-(4-Acetyl-piperazin-1-yl)-pyrimidin-4-yl]-4-oxo-4,5-dihydro-3H-pyrrolo[2,3-c]quinoline-1-ethyl carboxylate] |
| 1 to 10 µM |  |  | 1 to 10 µM | CCOC(=O)c1c[nH]c2c(=O)[nH]c3ccc(-c4ccnc(N(C)CCN(C)C)n4)cc3c12 [Compound 269, 8-{2-[(2-Dimethylamino-ethyl)-methyl-amino]-pyrimidin-4-yl}-4-oxo-4,5-dihydro-3H-pyrrolo[2,3-c]quinoline-1-ethyl carboxylate formate] |
| 0.1 to 1 µM |  |  | 10 to 100 µM | CCOC(=O)c1c[nH]c2c(=O)[nH]c3ccc(-c4csc(N)n4)cc3c12 [Compound 270, 8-(2-Amino-thiazol-4-yl)-4-oxo-4,5-dihydro-3H-pyrrolo[2,3-c]quinoline-1-ethyl carboxylate] |
| 0.1 to 1 µM |  |  | 1 to 10 µM | CCOC(=O)c1c[nH]c2c(=O)[nH]c3ccc(-c4csc(C5CCNCC5)n4)cc3c12 [Compound 277, 4-Oxo-8-(2-piperidin-4-yl-thiazol-4-yl)-4,5-dihydro-3H-pyrrolo[2,3-c]quinoline-1-ethyl carboxylate] |
